According to patent publication US8758833B2, “Cosmetic composition for the treatment of acne comprising a peptide extract of Schisandra” (Laboratoires Expanscience, priority 2009, dated 2014):

What was measured:
[1] = test system: IL-1α released by keratinocytes; experiment: Assay of IL-1α released by PMA-stimulated keratinocytes (ELISA); type: cell-based
Description: (§1) Keratinocytes were seeded in 24-well plates in KGM2 medium. After 24 hours of incubation, the cells were pretreated with Schisandra peptides for 24 hours. Next, the cells were stimulated by adding […] PMA (phorbol 12-myristate 13-acetate, Sigma) for 24 hours.
(§2) After the treatment, the cell supernatants were collected and IL-1α and VEGF were assayed using ELISA kits (R&D Systems) according to the manufacturer's instructions.
(§3) An MTT (IL-1α) or neutral red (VEGF) test was carried out on the cell layers: OD, proportional to the quantity of living cells, is read at 570 nm (MTT) or 540 nm (red neutral).
(§4) The quantities of IL-1α and VEGF are expressed in pg/ml/OD570 and pg/ml/OD540, respectively.

VEGF in keratinocytes = experiment: Assay of VEGF in PMA-stimulated keratinocytes (ELISA); type: cell-based; settings: Positive control (PMA) alone; non-stimulated control 208.166
Description: as §1, §2, §3, §4

| SMILES | inhibition at 0.1 µM ([1]; Keratinocyte, pretreatment with 10^−7 M dexamethasone, keratinocytes stimulated by PMA 24 hours, read-out: inhibition of the IL-1α release induced by PMA) [%] | Average VEGF (VEGF in keratinocytes) [pg/mL] | release of IL-1α induced by stimulation (% vs unstimulated) ([1]; keratinocytes stimulated by PMA for 24 hours) |
| --- | --- | --- | --- |
| C[C@@H]1C[C@H]2[C@@H]3CCC4=CC(=O)C=C[C@]4(C)[C@@]3(F)[C@@H](O)C[C@]2(C)[C@@]1(O)C(=O)CO [dexamethasone] | 100 | – | – |
| CCCCCCCCCCCCCC(=O)O[C@@H]1[C@@H](C)[C@@]2(O)[C@@H](C=C(CO)C[C@]3(O)C(=O)C(C)=C[C@@H]23)[C@@H]2C(C)(C)[C@]12OC(C)=O [PMA, phorbol 12-myristate 13-acetate] | – | 767.941 | +123% |
